Literature values in publication PMC3266668 (Frontiers in Pharmacology, 2012).

Assays:
[1] = tested on: patients after myocardial infarction; details: ref Echt et al., [1991]
[2] = tested on: isolated left ventricular wedge preparations; details: ref Lu et al., [2010]
[3] = tested on: isolated rabbit hearts; details: ref Lu et al., [2010]

QRS interval effect [2]	ventricular tachycardia [2]	QRS interval effect [3]	ventricular tachycardia [3]	SMILES	mortality in CAST treatment arms [1]
–	–	–	–	COc1ccc(C(=O)Nc2ccccc2CCC2CCCCN2C)cc1 (stereo not drawn) [encainide]	increased mortality due to arrhythmias
only slightly increased QRS duration	without inducing ventricular tachycardia	small increase in QRS duration	did not induce ventricular tachycardia	CCN(CC)CC(=O)Nc1c(C)cccc1C [lidocaine]	–
–	–	–	–	O=C(NCC1CCCCN1)c1cc(OCC(F)(F)F)ccc1OCC(F)(F)F (stereo not drawn) [flecainide]	increased mortality due to arrhythmias
